Results published in ChEMBL document CHEMBL1131806, “Structure-activity relationships of pyrroloquinazolines as thrombin receptor antagonists” (Bioorg Med Chem Lett, 1999).
Active and inactive are the calls of the source. No cut-off for these calls is given here.

How the values were obtained:
[1] = target: T1, Proteinase-activated receptor 1 (Homo sapiens, UniProt P25116); test: Inhibitory activity against binding to Thrombin receptor 1 (PAR-1)
T1 sequence (P25116 whole entry): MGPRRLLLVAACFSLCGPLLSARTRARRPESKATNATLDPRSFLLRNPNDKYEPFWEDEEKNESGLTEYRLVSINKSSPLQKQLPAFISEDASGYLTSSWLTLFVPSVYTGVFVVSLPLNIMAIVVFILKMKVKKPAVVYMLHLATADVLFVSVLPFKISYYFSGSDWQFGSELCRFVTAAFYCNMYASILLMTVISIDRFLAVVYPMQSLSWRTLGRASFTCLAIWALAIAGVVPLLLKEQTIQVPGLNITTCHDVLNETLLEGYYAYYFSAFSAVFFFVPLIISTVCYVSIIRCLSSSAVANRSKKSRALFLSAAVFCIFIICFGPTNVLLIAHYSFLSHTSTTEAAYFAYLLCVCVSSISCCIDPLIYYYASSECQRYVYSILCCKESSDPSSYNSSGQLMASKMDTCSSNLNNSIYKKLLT

Homo sapiens [2] = species on record: Homo sapiens; test: Compound was evaluated for the inhibition of aggregation induced by 0.1 U/mL thrombin at 10 uM concentration and determined at 2 min; NA = Not active; format: functional, organism-based
Homo sapiens [3] = species on record: Homo sapiens; test: Compound was evaluated for the inhibition of aggregation induced by 300 nM ha-TRAP(high affinity thrombin receptor agonist peptide); format: functional, organism-based
Homo sapiens [4] = species on record: Homo sapiens; test: Compound was evaluated for the inhibition of aggregation induced by 0.1 U/mL thrombin and determined at 2 min.; format: functional, organism-based
Homo sapiens [5] = species on record: Homo sapiens; test: Compound was evaluated for the inhibition of platelet aggregation induced by 0.1 U/mL thrombin at concentration. of 10 uM; NA = Not active; format: functional, organism-based
[6] = target: T2, Proteinase-activated receptor 1 (Homo sapiens) (UniProt P25116); test: Compound was evaluated for inhibitory activity against binding to Thrombin receptor 1 (PAR-1) at 1 uM concentration
T2 sequence (whole entry): T1 sequence (P25116 whole entry)

Homo sapiens [7] = species on record: Homo sapiens; test: Compound was evaluated for the inhibition of aggregation induced by 300 nM ha-TRAP(high affinity thrombin receptor agonist peptide) at 10 uM concentration; NA = Not active; format: functional, organism-based
Homo sapiens [8] = species on record: Homo sapiens; test: Compound was evaluated for the inhibition of aggregation induced by 300 nM ha-TRAP(high affinity thrombin receptor agonist peptide) at 10 uM concentration; format: functional

CNc1nc(N(C)C)nc2ccc3c(ccn3Cc3ccc(C(C)C)cc3)c12
IC50 [1]: 3200 nM | inhibition (Homo sapiens [2]): inactive

CNc1nc(N)c2c(ccc3c2ccn3Cc2ccc(C(C)C)cc2)n1
IC50 (Homo sapiens [3]): 600 nM | IC50 [1]: 870 nM | inhibition (Homo sapiens [2]): inactive

CCNc1nc(N)c2c(ccc3c2ccn3Cc2ccc(C(C)C)cc2)n1
IC50 (Homo sapiens [3]): 600 nM | IC50 [1]: 524 nM | inhibition (Homo sapiens [2]): inactive

CC(C)(C)c1ccc(Cn2ccc3c4c(N)nc(N)nc4ccc32)cc1
IC50 [1]: 1230 nM

CC(C)c1ccc(Cn2ccc3c4c(N)nc(NC5CC5)nc4ccc32)cc1
IC50 (Homo sapiens [4]): 3000 nM | IC50 (Homo sapiens [3]): 300 nM | IC50 [1]: 56 nM

CC(C)c1ccc(Cn2ccc3c4c(N)nc(N)nc4ccc32)cc1
inhibition (Homo sapiens [5]): inactive | IC50 (Homo sapiens [3]): 3000 nM | IC50 [1]: 300 nM

C=Cc1ccc(Cn2ccc3c4c(N)nc(N)nc4ccc32)cc1
IC50 [1]: 9600 nM

CCOc1ccc(Cn2ccc3c4c(N)nc(N)nc4ccc32)cc1
IC50 [1]: 2630 nM

CC(C)c1ccc(Cn2ccc3c4c(N)nc(N(C)C)nc4ccc32)cc1
IC50 (Homo sapiens [3]): 2000 nM | IC50 [1]: 100 nM | inhibition (Homo sapiens [2]): inactive

CC(C)c1ccc(Cn2ccc3c4c(N)nc(N5CCc6ccccc6C5)nc4ccc32)cc1
inhibition [6]: inactive | inhibition (Homo sapiens [2]): inactive

Cc1ccc2cc(Cn3ccc4c5c(N)nc(N)nc5ccc43)ccc2c1
IC50 [1]: 1750 nM

CC(C)c1ccc(Cn2ccc3c4c(N)nc(NCCO)nc4ccc32)cc1
inhibition (Homo sapiens [7]): inactive | IC50 [1]: 4900 nM | inhibition (Homo sapiens [2]): inactive

CC(C)c1ccc(Cn2ccc3c4c(N)nc(N5CCCCC5)nc4ccc32)cc1
IC50 (Homo sapiens [3]): 600 nM | IC50 [1]: 100 nM | inhibition (Homo sapiens [2]): inactive

CC(C)c1ccc(Cn2ccc3c4c(N)nc(N5CCNCC5)nc4ccc32)cc1
inhibition (Homo sapiens [7]): inactive | inhibition [6]: 17% | inhibition (Homo sapiens [2]): inactive

CC(C)c1ccc(Cn2ccc3c4c(N(C)C)nc(N(C)C)nc4ccc32)cc1
Inhibition (Homo sapiens [8]): 40% | IC50 [1]: 1250 nM | inhibition (Homo sapiens [2]): inactive

CSc1ccc(Cn2ccc3c4c(N)nc(N)nc4ccc32)cc1
IC50 [1]: 6880 nM

CC(C)c1ccc(Cn2ccc3c4c(N)nc(N(C)C5CC5)nc4ccc32)cc1
IC50 (Homo sapiens [4]): 700 nM | IC50 (Homo sapiens [3]): 150 nM | IC50 [1]: 52 nM

CCc1ccc(Cn2ccc3c4c(N)nc(N)nc4ccc32)cc1
IC50 [1]: 4500 nM
